Each compound was assayed against T1, Angiotensin-converting enzyme (Oryctolagus cuniculus, UniProt P12822) (assay: Concentration required for 50% inhibition of rabbit lung Angiotensin I converting enzyme with 5 mM hippuryl-histidyl-leucine as substrate).
T1 sequence (P12822 whole entry): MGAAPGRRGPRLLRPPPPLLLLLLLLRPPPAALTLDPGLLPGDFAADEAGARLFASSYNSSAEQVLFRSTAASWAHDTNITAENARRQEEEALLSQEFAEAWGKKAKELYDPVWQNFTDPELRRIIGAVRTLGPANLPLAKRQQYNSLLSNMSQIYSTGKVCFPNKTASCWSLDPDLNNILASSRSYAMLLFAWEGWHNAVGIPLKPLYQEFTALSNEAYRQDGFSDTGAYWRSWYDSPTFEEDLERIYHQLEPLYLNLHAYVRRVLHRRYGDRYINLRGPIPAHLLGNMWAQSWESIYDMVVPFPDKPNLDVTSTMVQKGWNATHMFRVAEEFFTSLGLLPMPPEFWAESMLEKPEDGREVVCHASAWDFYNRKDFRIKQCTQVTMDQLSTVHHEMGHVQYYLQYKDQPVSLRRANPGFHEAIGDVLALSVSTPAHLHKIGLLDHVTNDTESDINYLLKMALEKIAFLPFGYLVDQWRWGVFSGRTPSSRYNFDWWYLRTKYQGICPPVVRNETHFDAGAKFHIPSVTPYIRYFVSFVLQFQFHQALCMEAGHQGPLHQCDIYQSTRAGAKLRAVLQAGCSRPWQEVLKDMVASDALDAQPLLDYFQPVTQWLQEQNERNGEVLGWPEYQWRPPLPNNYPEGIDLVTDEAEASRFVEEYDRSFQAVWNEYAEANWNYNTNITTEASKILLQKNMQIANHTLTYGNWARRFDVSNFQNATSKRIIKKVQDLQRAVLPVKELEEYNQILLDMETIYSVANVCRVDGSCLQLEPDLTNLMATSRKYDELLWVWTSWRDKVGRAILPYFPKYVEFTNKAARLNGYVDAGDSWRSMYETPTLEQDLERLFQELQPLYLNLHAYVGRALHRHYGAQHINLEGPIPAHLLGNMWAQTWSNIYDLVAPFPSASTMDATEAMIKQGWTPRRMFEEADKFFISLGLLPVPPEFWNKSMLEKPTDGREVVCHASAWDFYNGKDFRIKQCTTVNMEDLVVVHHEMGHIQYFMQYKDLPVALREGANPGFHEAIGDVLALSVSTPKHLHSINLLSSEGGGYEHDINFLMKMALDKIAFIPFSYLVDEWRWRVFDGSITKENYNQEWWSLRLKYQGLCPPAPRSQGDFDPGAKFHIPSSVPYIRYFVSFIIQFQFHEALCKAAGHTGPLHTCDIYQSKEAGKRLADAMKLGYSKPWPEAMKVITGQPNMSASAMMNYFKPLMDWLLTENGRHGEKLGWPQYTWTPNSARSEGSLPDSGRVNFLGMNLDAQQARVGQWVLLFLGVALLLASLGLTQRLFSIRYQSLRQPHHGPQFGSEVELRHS

SMILES	IC50 [nM]
O=C(O)CN1C[C@@H](c2ccccc2)CC[C@H](N[C@@H](CCc2ccccc2)C(=O)O)C1=O	3.1
O=C(O)CN1C[C@H](c2ccccc2)CC[C@H](N[C@@H](CCc2ccccc2)C(=O)O)C1=O	4.3
O=C(O)CN1C(=O)[C@@H](N[C@@H](CCc2ccccc2)C(=O)O)CCC[C@H]1c1ccccc1	3.6
O=C(O)CN1C(=O)[C@@H](N[C@@H](CCc2ccccc2)C(=O)O)CCC[C@@H]1c1ccccc1	16.2

Source: ChEMBL document CHEMBL1124039, “Angiotensin-converting enzyme inhibitors. 2. Perhydroazepin-2-one derivatives” (J Med Chem, 1988)
